Earlier results as cited in US11682473B2, “Skin permeability prediction” (priority 2016, dated 2023).
Read-outs that look alike come from different tables or passages of the source.

Conditions: for log KPexp: uncorrected literature value (permeabilities in cm/h); for log Kp303K: experimental literature values (in vitro diffusion cells), averaged over sources, temperature-corrected to 303 K; for log KP, Experimental: Experimental row of Table 16 (in vitro diffusion cells)

c1ccccc1 [Benzene, benzene]
log KPexp (Texp 25 °C): −0.80 | log KPexp (Texp 31 °C): −0.95 | log Kp303K: −0.8 cm/h

COc1ccc2c3c1O[C@H]1[C@@H](O)C=C[C@H]4[C@@H](C2)N(C)CC[C@@]341 [Codeine, codeine]
log KP, Experimental: −4.6 cm/h | log KPexp (Texp 37 °C): −4.6 | log Kp303K: −4.6 cm/h

CN1CCCC1c1cccnc1 (stereo not shown) [Nicotine, nicotine]
log KP, Experimental: −1.8 cm/h | log KPexp (Texp 25 °C): −1.71 | log KPexp (Texp 37 °C): −2.48 | log Kp303K: −1.8 cm/h
